What was measured:
Type in all cases: binding
[1] = target: human UGGT1 (Homo sapiens, UniProt Q9NYU2); assay: STD NMR
[2] = target: T1, CtUGGTGT24 (UDP-glucose glycoprotein glucosyltransferase, catalytic domain) (Thermochaetoides thermophila, UniProt G0SB58); assay: […] Å co-crystal structure
T1 sequence (G0SB58 1187-1473): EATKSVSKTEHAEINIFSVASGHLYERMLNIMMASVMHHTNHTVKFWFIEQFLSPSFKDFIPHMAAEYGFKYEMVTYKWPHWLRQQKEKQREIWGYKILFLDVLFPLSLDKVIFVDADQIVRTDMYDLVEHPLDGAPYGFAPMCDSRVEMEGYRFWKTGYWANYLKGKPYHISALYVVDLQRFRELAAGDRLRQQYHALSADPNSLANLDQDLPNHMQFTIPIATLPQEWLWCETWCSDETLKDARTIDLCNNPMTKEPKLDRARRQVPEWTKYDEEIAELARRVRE

[3] = target: T1, CtUGGTGT24 (UDP-glucose glycoprotein glucosyltransferase, catalytic domain); assay: co-crystal structure

Chain of human UGGT1 (Q9NYU2 43-1551): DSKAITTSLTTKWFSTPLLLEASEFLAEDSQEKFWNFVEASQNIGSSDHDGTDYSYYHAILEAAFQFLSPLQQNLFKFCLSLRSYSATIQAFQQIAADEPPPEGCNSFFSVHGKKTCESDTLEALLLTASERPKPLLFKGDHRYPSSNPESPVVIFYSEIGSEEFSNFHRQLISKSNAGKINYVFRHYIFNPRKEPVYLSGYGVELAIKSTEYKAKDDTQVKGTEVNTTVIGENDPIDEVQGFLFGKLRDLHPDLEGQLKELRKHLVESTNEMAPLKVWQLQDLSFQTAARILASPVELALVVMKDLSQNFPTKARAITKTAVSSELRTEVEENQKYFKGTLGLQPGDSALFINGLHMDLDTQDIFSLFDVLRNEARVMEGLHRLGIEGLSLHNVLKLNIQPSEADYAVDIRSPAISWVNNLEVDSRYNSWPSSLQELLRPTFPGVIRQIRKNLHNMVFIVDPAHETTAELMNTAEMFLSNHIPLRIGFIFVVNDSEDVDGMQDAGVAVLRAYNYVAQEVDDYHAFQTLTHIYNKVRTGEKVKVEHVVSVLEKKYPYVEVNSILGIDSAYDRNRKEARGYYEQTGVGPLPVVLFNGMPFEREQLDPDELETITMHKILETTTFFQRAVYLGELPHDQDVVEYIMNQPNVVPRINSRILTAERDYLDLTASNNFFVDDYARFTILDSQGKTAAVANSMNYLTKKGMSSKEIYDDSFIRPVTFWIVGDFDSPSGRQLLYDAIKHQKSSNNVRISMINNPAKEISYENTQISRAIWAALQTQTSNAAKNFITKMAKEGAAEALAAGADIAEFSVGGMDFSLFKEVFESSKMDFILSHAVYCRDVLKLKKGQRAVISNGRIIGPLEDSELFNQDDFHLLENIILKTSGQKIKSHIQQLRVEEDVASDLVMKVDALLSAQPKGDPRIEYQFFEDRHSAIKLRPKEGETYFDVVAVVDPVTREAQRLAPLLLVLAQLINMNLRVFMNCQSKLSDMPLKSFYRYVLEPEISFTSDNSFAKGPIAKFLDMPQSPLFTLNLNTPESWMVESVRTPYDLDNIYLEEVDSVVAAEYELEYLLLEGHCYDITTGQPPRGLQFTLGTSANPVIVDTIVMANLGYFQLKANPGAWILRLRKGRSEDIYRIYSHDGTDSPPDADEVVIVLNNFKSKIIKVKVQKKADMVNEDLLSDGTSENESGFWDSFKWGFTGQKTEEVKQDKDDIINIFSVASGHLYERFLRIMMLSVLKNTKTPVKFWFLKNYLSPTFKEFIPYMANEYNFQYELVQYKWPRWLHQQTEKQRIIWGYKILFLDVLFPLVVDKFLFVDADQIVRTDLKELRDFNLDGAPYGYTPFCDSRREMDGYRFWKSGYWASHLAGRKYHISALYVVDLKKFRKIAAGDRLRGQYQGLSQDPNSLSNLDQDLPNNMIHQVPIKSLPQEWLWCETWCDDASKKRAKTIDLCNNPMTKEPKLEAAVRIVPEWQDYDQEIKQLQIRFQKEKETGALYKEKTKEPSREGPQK

| Kd [1] [µM] | Kd [2] [µM] | Structure (SMILES) | co-crystal structure (X-ray) [3] |
| --- | --- | --- | --- |
| 613 | 47 ± 0.7 | Oc1ccc(CN2CCOCC2)c2cccnc12 [5M-8OH-Q, 5-[(morpholin-4-yl)methyl]quinolin-8-ol] |  |
|  |  | O=c1ccn([C@@H]2O[C@H](COP(=O)(O)OP(=O)(O)O[C@H]3O[C@H](CO)[C@@H](O)[C@H](O)[C@H]3F)[C@@H](O)[C@H]2O)c(=O)[nH]1 [U2F] | In the ^U2FCtUGGTGT24 structure (PDB ID 7ZLU) these two water molecules are replaced by an O atom |
